Measurements published in US20230312652A1, “NOVEL PEPTIDES AND USES THEREOF” (Aarhus Universitet, priority 2020, published 2023).
Where a SMILES comes first, the peptide text is derived from it.

Legend:
[1] = Stability in L-His buffer formulation with hyaluronidase; assay type: physicochemical; conditions: up to 7 days
Method: Buffer solution containing 4.4 mM L-histidine, 140 mM NaCl, 0.2% w/V Tween 20 and 1500 IU/mL hyaluronidase was incubated with 1 mM P1 at −20° C., 4° C. and 25° C. for up to 7 days. LCMS was used to ascertain the amount of P1 remaining in the solutions.

[2] = Plasma binding, mouse plasma, ultracentrifugation; assay type: in vitro ADME
Method: For plasma binding, 2 μM P1 or Warfarin (positive control) were added to mouse or human plasma. After 30 minutes incubation at 37° C., samples where ultracentrifuged for 4 hours to generate protein-free samples for LCMS analysis. In parallel, plasma was incubated for 4.5 h to determine total levels after incubation. Plasma binding was calculated as % Bound=100*(1−F/T4.5), where F is concentration of free ligand and T4.5 is the concentration of total ligand after incubation.

[3] = system: HTT in GM01650E fibroblasts; assay: Total HTT levels in fibroblasts from a healthy individual (GM01650E); assay type: cell-based, human; conditions: 1 uM, healthy cell line, 2-4 hours
Method: GM04719 was seeded at 30,000-50,000 per well in a 96-well. The following day, the cells were treated with 1 uM of P1 and incubated at 37° C. and 5% CO2 at timepoints 0-24 hours. Hereafter, the cells were lysed in RIPA lysis buffer containing cOmplete cocktail protease inhibitor. Total Huntingtin levels were analysed using antibody mab2166 (Sigma-Aldrich) by western blotting and normalized to beta-actin. To determine, whether P1 also clears the healthy allele, we further assessed levels of total HTT in fibroblast derived from a healthy individual (GM01650E), bought from Coriell Biobank.

[4] = Plasma, whole brain and cerebrospinal fluid concentrations after SC or IV injection, LC MS/MS; assay type: in vivo, mouse; conditions: for half-life: mouse, in vivo, read-out: T½ in brain (converted)
Method: 13 mg/kg and 52 mg/kg of P1 were either subcutaneously or intravenously injected in wild-type mice in either 4.38 mM L-His, 140 mM NaCl, 0.2% Tween-20 and 1500 IU hyaluronidase (for SC, pH 6.15) or saline (IV). Both plasma, whole brain and cerebrospinal fluid concentrations were validated at different timepoints of 0.25-4 hours by LC MS/MS.
We further explored whether delivery to the CSF and brain would be dose-dependent by the SC route. P1 (SEQ ID NO: 1) were subcutaneously injected in wild-type mice in different concentrations of 0-52 mg/kg in 4.38 mM L-His, 140 mM NaCl, 0.2% Tween-20 and 1500 IU hyaluronidase (pH 6.15). Levels of P1 were validated in both plasma, whole brain and cerebrospinal fluid after 15 min injection by LC MS/MS.
13 mg/kg of P1 (SEQ ID NO: 1) were subcutaneously injected in wild-type mice in different formulations in either PBS buffer, in buffer containing 4.38 mM L-His, 140 mM NaCl, 0.2% Tween-20 and 1500 IU hyaluronidase (pH 6.15) or in buffer with 4.38 mM L-His, 140 mM NaCl, 0.2% Tween-20. Levels of P1 were validated in both plasma and whole brain after 15 and 30 min. of injection by LC MS/MS.

[5] = Plasma stability, human plasma; assay type: in vitro ADME; conditions: 2 μM, 37° C.
Method: Mouse or human plasma were incubated with 2 μM of P1 (SEQ ID NO: 1) or propantheline bromide (positive control for degradation) and left at 37° C. At each time point, stop solution was added to precipitate the solution and after mixing and centrifugation, supernatant was used for LCMS analysis.

CREB = CREB activation in striatum and hippocampus of wild-type mice after IV injection; assay type: in vivo, mouse; conditions: 0.26 mg/kg IV, 1 hour after injection
Method: To assess this, 8 weeks old wild-type mice were injected intravenously with either 0.26 mg/kg of peptide P1 or LP1 dissolved in saline. 1 hour after the injection, the mice were sacrificed by cervical dislocation and striatal tissue was isolated by dissection and immediately lysed using a TissueLyser in lysis buffer containing cOmplete and DTT. The samples were subsequently homogenized by sonication. The phosphorylation of CREB on serine 133 was subsequently validated by western blotting. The levels of phosphorylated CREB were normalized to the corresponding beta-actin levels. Student's t-test was used for statistical analysis.

[6] = system: GRN+/- hippocampal neurons; assay: Dendritic branching of GRN+/- hippocampal neurons; assay type: cell-based, mouse; conditions: 1 uM, 72 hours
Method: To further validate the therapeutic potential of peptide P1 in frontotemporal dementia, its neurotrophic activity in GRN heterozygous hippocampal neurons isolated from p0 mice was investigated. Heterozygous loss of function mutations in the progranulin gene, GRN, cause frontotemporal dementia^68. To assess this, we measured the dendritic branching of GRN+/− hippocampal neurons in vitro following treatment. 10000 neurons were seeded per coverslip. After 24 hours the medium was changed to medium containing 1 uM of peptide P1. Hereafter, the cells were incubated at 37° C. for 72 hours before being fixed in 4% PFA for 20 minutes at room temperature. The neurons were subsequently stained against MAP2 to determine cell morphology. Images were taken using a confocal microscope and the neurite branches were analysed using Zen Image Processing (Carl Zeiss). The total number of branches were calculated per neuron. Student's t-test was used for statistical analysis.

BDNF, TFEB and PGC1a = assay: CREB-downstream target levels in wild-type cortical neurons; assay type: cell-based, mouse; conditions: 1 uM, 4 hours or 6 hours
Method: Cortical neurons were isolated from p0 wild-type mice and seeded in a density of 200,000 per well (24-well tray). After 7 days in vitro the neurons were stimulated with 1 uM P1 in neurobasal A media and incubated at 37° C. and 5% CO2 for 4 hours or 6 hours. Hereafter, the neurons were lysed in RIPA lysis buffer containing cOmplete cocktail protease inhibitor.

[7] = system: AMPK (T172) and Raptor (S792); assay: Phosphorylation of AMPK (T172) and Raptor (S792) in cortical neurons, western blotting; assay type: cell-based, mouse; conditions: 1 uM, 20 minutes
Method: To assess the ability of peptide P1 to activate AMPK and subsequently inactivate the mTOR complex, mouse cortical neurons were isolated from p0 wild-type mice and seeded in a density of 250,000 per well in a 12-well tray. After 7 days in vitro the neurons were stimulated with P1 in neurobasal A media and incubated at 37° C. and 5% CO2 for 20 minutes. Hereafter, the neurons were lysed in lysis buffer containing DTT and cOmplete cocktail protease inhibitor. The phosphorylation of AMPK (T172) and Raptor (S792) was validated by western blotting normalized to beta-actin.

[8] = SC 0-52 mg/kg, 15 min after injection

CSCC[C@@H]1NC(=O)[C@H](C(C)C)NC(=O)[C@H](CC(=O)O)NC(=O)[C@H](CCC(=O)O)NC(=O)[C@H](CCC(=O)O)NC(=O)[C@H](Cc2c[nH]cn2)NC(=O)[C@H](CCC(=O)O)NC(=O)[C@H](C(C)C)NC(=O)[C@@H]2CCCN2C(=O)[C@H](CCC(=O)O)NC(=O)[C@H]([C@@H](C)O)NC1=O [Peptide P1, [MTEPVEHEEDV]] (cyclo(MTEPVEHEEDV))
stability in buffer (amount remaining, LCMS) ([1]; 1 mM P1, 4° C.): no stability issues | stability in buffer (amount remaining, LCMS) ([1]; 1 mM P1, 25° C.): could affect stability after 4 days | stability in buffer (amount remaining, LCMS) ([1]; 1 mM P1, −20° C.): no stability issues | plasma binding ([2]; 2 μM): very low plasma binding | fraction unbound at 30 min, 2 μM ([2]; read-out: compound unbound in plasma): > 0.75 | total HTT levels [3]: increasing the total HTT levels | difference between L-His buffer with or without hyaluronidase ([4]; 13 mg/kg SC, plasma and whole brain, 15 and 30 min): no significant difference | levels in plasma and whole brain in different formulations ([4]; 13 mg/kg SC, PBS, L-His buffer with or without hyaluronidase, 15 and 30 min): measurable in the plasma and brain in all formulations | maximal brain-plasma ratio ([4]; IV delivery): 0.034 | levels in brain and CSF [4, 8]: measurable in the brain and CSF at all concentrations | levels in plasma, brain and CSF versus dose [4, 8]: increased with the dosage | maximal brain-plasma ratio ([4]; SC delivery): 0.032 | half-life ([4]; IV delivery, saline): 13.9 min | half-life ([4]; SC delivery, L-His buffer with hyaluronidase): 19 min | half-life [5]: > 289 min | pCREB (S133) in hippocampus (CREB): performed markedly better than LP1 | pCREB (S133) in striatum (CREB): performed markedly better than LP1 | number of branches per neuron [6]: increased branching | BDNF level (BDNF, TFEB and PGC1a): upregulated | PGC1a level (BDNF, TFEB and PGC1a): upregulated | TFEB level (BDNF, TFEB and PGC1a): upregulated | AMPK phosphorylation on T172 [7]: activates AMPK | Raptor phosphorylation on S792 [7]: inactivates Raptor
